Test results published in ChEMBL document CHEMBL5226390, “Synthesis and Structure-Activity Analysis of Icaritin Derivatives as Potential Tumor Growth Inhibitors of Hepatocellular Carcinoma Cells” (J Nat Prod, 2023).
The source made the active and inactive calls. No cut-off for these calls is given here.

Columns and labels:
HepG2 [1] = test: Induction of apoptosis in human HepG2 cells assessed as necrotic cells at 4 uM incubated for 48 hrs by AnnexinV-FITC/PI staining based flow cytometry (reference value: 2.22%); type: functional
SMMC-7721 [2] = test: Induction of apoptosis in human SMMC-7721 cells assessed as late apoptotic cells at 4 uM incubated for 48 hrs by AnnexinV-FITC/PI staining based flow cytometry (reference value: 1.51%); type: functional
SMMC-7721 [3] = test: Induction of cell cycle arrest in human SMMC-7721 cells assessed as accumulation of cells at G0/G1 phase at 8 uM incubated for 48 hrs by PI staining based flow cytometry (reference value: 59.57%); type: functional
SMMC-7721 [4] = test: Induction of cell cycle arrest in human SMMC-7721 cells assessed as accumulation of cells at G2/M phase at 2 uM incubated for 48 hrs by PI staining based flow cytometry (reference value: 15.49%); type: functional
SMMC-7721 [5] = test: Induction of apoptosis in human SMMC-7721 cells assessed as viable cells at 2 uM incubated for 48 hrs by AnnexinV-FITC/PI staining based flow cytometry (reference value: 85.1%); type: functional; conditions: read-out: Activity
HepG2 [6] = test: Induction of apoptosis in human HepG2 cells assessed as necrotic cells at 2 uM incubated for 48 hrs by AnnexinV-FITC/PI staining based flow cytometry (reference value: 2.22%); type: functional
SMMC-7721 [7] = test: Induction of apoptosis in human SMMC-7721 cells assessed as increase in number of detached cells with fewer cells at 2 to 8 uM incubated for 48 hrs by phase contrast microscopy; type: functional, cell-based; conditions: dose 2-8 µM
SMMC-7721 [8] = test: Induction of apoptosis in human SMMC-7721 cells assessed as chromatin condensation and fragmentation at 2 to 8 uM incubated for 48 hrs by Hoechst 33258 staining based fluorescence microscopic analysis; type: functional, cell-based; conditions: dose 2-8 µM
HepG2 [9] = test: Induction of cell cycle arrest in human HepG2 cells assessed as accumulation of cells at G0/G1 phase at 4 uM incubated for 48 hrs by PI staining based flow cytometry (reference value: 64.11%); type: functional
HepG2 [10] = test: Induction of cell cycle arrest in human HepG2 cells assessed as accumulation of cells at G2/M phase at 8 uM incubated for 48 hrs by PI staining based flow cytometry (reference value: 17.89%); type: functional
HepG2 [11] = test: Induction of apoptosis in human HepG2 cells assessed as increase in number of detached cells with fewer cells at 2 to 8 uM incubated for 48 hrs by phase contrast microscopy; type: functional, cell-based; conditions: dose 2-8 µM
SMMC-7721 [12] = test: Induction of apoptosis in human SMMC-7721 cells assessed as late apoptotic cells at 8 uM incubated for 48 hrs by AnnexinV-FITC/PI staining based flow cytometry (reference value: 1.51%); type: functional
HepG2 [13] = test: Induction of apoptosis in human HepG2 cells assessed as late apoptotic cells at 8 uM incubated for 48 hrs by AnnexinV-FITC/PI staining based flow cytometry (reference value: 3.23%); type: functional
HepG2 [14] = test: Induction of cell cycle arrest in human HepG2 cells assessed as accumulation of cells at G2/M phase at 2 uM incubated for 48 hrs by PI staining based flow cytometry (reference value: 17.89%); type: functional
SMMC-7721 [15] = test: Induction of cell cycle arrest in human SMMC-7721 cells assessed as downregulation of Cdc2 protein expression at 2 to 8 uM incubated for 48 hrs by western blot analysis; type: functional, cell-based; conditions: dose 2-8 µM
SMMC-7721 [16] = test: Potency index, ratio of Sorafenib IC50 to test compound IC50 for antiproliferative activity against human SMMC-7721 cells; type: functional
SMMC-7721 [17] = test: Induction of apoptosis in human SMMC-7721 cells assessed as necrotic cells at 2 uM incubated for 48 hrs by AnnexinV-FITC/PI staining based flow cytometry (reference value: 12.3%); type: functional
HepG2 [18] = test: Induction of cell cycle arrest in human HepG2 cells assessed as downregulation of Cdc2 protein expression at 2 to 8 uM incubated for 48 hrs by western blot analysis; type: functional, cell-based; conditions: dose 2-8 µM
SMMC-7721 [19] = test: Induction of cell cycle arrest in human SMMC-7721 cells assessed as accumulation of cells at S phase at 2 uM incubated for 48 hrs by PI staining based flow cytometry (reference value: 24.94%); type: functional
SMMC-7721 [20] = test: Induction of apoptosis in human SMMC-7721 cells assessed as early apoptotic cells at 8 uM incubated for 48 hrs by AnnexinV-FITC/PI staining based flow cytometry (reference value: 1.13%); type: functional
HepG2 [21] = test: Potency index, ratio of Sorafenib IC50 to test compound IC50 for antiproliferative activity against human HepG2 cells; type: functional
HepG2 [22] = test: Induction of apoptosis in human HepG2 cells assessed as viable cells at 4 uM incubated for 48 hrs by AnnexinV-FITC/PI staining based flow cytometry (reference value: 91.1%); type: functional; conditions: read-out: Activity
HepG2 [23] = test: Induction of cell cycle arrest in human HepG2 cells assessed as downregulation of p34 protein expression at 2 to 8 uM incubated for 48 hrs by western blot analysis; type: functional, cell-based; conditions: dose 2-8 µM
HepG2 [24] = test: Induction of apoptosis in human HepG2 cells assessed as viable cells at 2 uM incubated for 48 hrs by AnnexinV-FITC/PI staining based flow cytometry (reference value: 91.1%); type: functional; conditions: read-out: Activity
SMMC-7721 [25] = test: Antiproliferative activity against human SMMC-7721 cells assessed as reduction in cell viability incubated for 48 hrs by MTT assay; type: functional, cell-based; conditions: Homo sapiens, SMMC-7721, 48 h; read-out: IC50
HepG2 [26] = test: Induction of apoptosis in human HepG2 cells assessed as early apoptotic cells at 2 uM incubated for 48 hrs by AnnexinV-FITC/PI staining based flow cytometry (reference value: 3.41%); type: functional
SMMC-7721 [27] = test: Induction of cell cycle arrest in human SMMC-7721 cells assessed as accumulation of cells at S phase at 4 uM incubated for 48 hrs by PI staining based flow cytometry (reference value: 24.94%); type: functional
SMMC-7721 [28] = test: Induction of cell cycle arrest in human SMMC-7721 cells assessed as upregulation of p21 protein expression at 2 to 8 uM incubated for 48 hrs by western blot analysis; type: functional, cell-based; conditions: dose 2-8 µM
SMMC-7721 [29] = test: Induction of apoptosis in human SMMC-7721 cells assessed as viable cells at 8 uM incubated for 48 hrs by AnnexinV-FITC/PI staining based flow cytometry (reference value: 85.1%); type: functional; conditions: read-out: Activity
Hep 3B2 = test: Antiproliferative activity against human Hep3B cells assessed as reduction in cell viability incubated for 48 hrs by MTT assay; type: functional, cell-based
HepG2 [30] = test: Induction of apoptosis in human HepG2 cells assessed as viable cells at 8 uM incubated for 48 hrs by AnnexinV-FITC/PI staining based flow cytometry (reference value: 91.1%); type: functional; conditions: read-out: Activity
SMMC-7721 [31] = test: Induction of cell cycle arrest in human SMMC-7721 cells assessed as accumulation of cells at G2/M phase at 8 uM incubated for 48 hrs by PI staining based flow cytometry (reference value: 15.49%); type: functional
SMMC-7721 [32] = test: Induction of apoptosis in human SMMC-7721 cells assessed as necrotic cells at 8 uM incubated for 48 hrs by AnnexinV-FITC/PI staining based flow cytometry (reference value: 12.3%); type: functional
HepG2 [33] = test: Induction of cell cycle arrest in human HepG2 cells assessed as accumulation of cells at S phase at 2 uM incubated for 48 hrs by PI staining based flow cytometry (reference value: 18%); type: functional

`COc1ccc(-c2oc3c(CC=C(C)C)c(OCCN4CCCC4)cc(O)c3c(=O)c2O[C@H]2O[C@H](C)[C@@H](O)[C@H](O)[C@@H]2O)cc1` showed an Activity (HepG2 [1]) of 3.21%, an Activity (SMMC-7721 [2]) of 6.92% and an Activity (SMMC-7721 [3]) of 78.65%. It also gave an Activity (SMMC-7721 [4]) of 13.29%, a viability at 2 µM (SMMC-7721 [5]) of 89.4% and an Activity (HepG2 [6]) of 8.93%. For the same molecule, the Activity (SMMC-7721 [7]) was “Active”, the Activity (SMMC-7721 [8]) was “Active” and the Activity (HepG2 [9]) was 80.03%. For the same molecule, the Activity (HepG2 [10]) was 6.39%, the Activity (HepG2 [11]) was “Active” and the Activity (SMMC-7721 [12]) was 8.46%. For the same molecule, the Activity (HepG2 [13]) was 17.7%, the Activity (HepG2 [14]) was 17.51% and the Activity (SMMC-7721 [15]) was “Active”. The “Ratio IC50” value (SMMC-7721 [16]) was 2, the Activity (SMMC-7721 [17]) was 2.96% and the Activity (HepG2 [18]) was “Active”. For the same molecule, the Activity (SMMC-7721 [19]) was 23.71%, the Activity (SMMC-7721 [20]) was 3.28% and the “Ratio IC50” value (HepG2 [21]) was 2. The viability at 4 µM (HepG2 [22]) was 86.2%, the Activity (HepG2 [23]) was “Active” and the viability at 2 µM (HepG2 [24]) was 83.3%. The IC50 (SMMC-7721 [25]) was 3.1 µM, the Activity (HepG2 [26]) was 1.52% and the Activity (SMMC-7721 [27]) was 19.6%. For the same molecule, the Activity (SMMC-7721 [28]) was “Active”, the viability at 8 µM (SMMC-7721 [29]) was 66.2% and the IC50 (Hep 3B2) was 3.9 µM. For the same molecule, the viability at 8 µM (HepG2 [30]) was 62.2%, the Activity (SMMC-7721 [31]) was 8.88% and the Activity (SMMC-7721 [32]) was 22.1%. It also gave an Activity (HepG2 [33]) of 13.7%.
